# In patent US20220378688A1, “Moisturizing or anti-atopic composition containing fatty acids or fatty acid derivatives” (DAEBONG LS, LTD, priority 2019, published 2022):
# “And” between values parts separate entries of the source, which are not always exact repeats. Equal values may be shown once.
# Legend:
# Format in all cases: cell-based, human
# hyaluronic acid = assay: Hyaluronic acid production in HaCaT cells (ELISA); details: 24 hours, untreated = 100
# Procedure: HaCaT cells were aliquoted in a 24-well plate at 1.0×10^5 cells/mL and cultured at 37° C., 5% CO2 conditions for 18 hours. It was replaced with a serum-free DMEM medium, and the samples in Table 2 were treated and cultured for 24 hours. After that, the culture medium was removed, centrifuged at 15,000 rpm for 5 minutes, and the supernatant was removed and stored frozen (−20° C.) until quantification. As a control group, a sample treated with retinoic acid (RA) at a concentration of 10 μM was used. Enzyme-Linked Immunosorbent Assay (ELISA) was performed using a hyaluronic acid ELISA kit (Elabscience Biotechnology Co., Ltd) and the method provided by the manufacturer.
# [1] = test system: thymus and activation regulated chemokine (TARC); assay: TARC production inhibitory activity in HaCaT cells (ELISA); details: IFN (30 ng/ml) + TNF (30 ng/ml) stimulated = 100
# Procedure: In order to confirm the atopic treatment effect on the carrot stems and leaves extract according to the present disclosure, atopic thymus and activation regulated chemokine (TARC) was analyzed.
# HaCaT cells were aliquoted in a 24-well plate at 1.5×10^5 cells/mL and cultured at 37° C., 5% CO2 conditions for 18 hours. […] Then, the atopic chemokine production content of the supernatant obtained by centrifugation of the culture medium (12,000 rpm, 3 min) was measured. All samples were stored frozen (−20° C.) until quantification. For TARC content, a human enzyme-linked immunosorbent assay (ELISA) kit (R&D Systems Inc., Minneapolis, Minn., USA) was used, and the r^2 value of the standard curve for the standard was 0.99 or more.
# HaCaT cells = assay: Cytotoxicity assessment, EZ-Cytox assay, HaCaT cell growth rate; details: untreated = 100
# Procedure: HaCaT cells, which are human epidermal keratinocytes, were distributed from Dr. C. G. Hyun (Jeju National University, Korea) and Dulbecco's Modified Eagle's Medium (DMEM) medium containing 100 units/ml of penicillin-streptomycin and 10% by volume of fetal bovine serum (FBS) was used and cultured at 37° C. and 5% CO2 incubator. Subculture was performed at intervals of 3 to 4 days.
# The EZ-cytox assay is a representative method for measuring cell viability using the principle that water solution tetrazolium salt (WST) reacts with dehydrogenase of living cells to generate orange water-soluble formazan.
# HaCaT cells were aliquoted in a 96-well plate at 1.0×10^4 cells/mL using DMEM medium supplemented with 10% by volume of FBS to check cytotoxicity and then cultured at 37° C., 5% CO2 condition for 18 hours. The cultured HaCaT cells were exchanged with serum-free DMEM to treat the extract to be evaluated. After that, EZ-cytox was added to each well and reacted for 30 minutes at 37° C. and 5% CO2, and absorbance was measured at 450 nm using a microplate reader. The average absorbance value for each sample group was obtained, and the cell viability was evaluated by comparing it with the absorbance value of the control group.
# Filaggrin = assay: Skin barrier strengthening: filaggrin production in HaCaT cells (ELISA); details: 10 μM, 24 hours, untreated = 100
# Procedure: HaCaT cells were aliquoted in a 24-well plate at 1.0×10^5 cells/mL and cultured at 37° C., 5% CO2 conditions for 18 hours. It was exchanged with serum-free DMEM, and the carrot stems and leaves extracts and roots extracts of the samples in Table 2 were treated and cultured for 24 hours. After removing the culture medium and washing with PBS for each group, PBS is containing no drug that may affect protein quantification was treated. The protein was collected after lysing the cells by repeating low-temperature and room-temperature incubation. As a control group, a sample treated with retinoic acid (RA) at a concentration of 10 μM was used. Quantification was performed using the Filaggrin-ELISA kit (Elabscience Biotechnology Co., Ltd) and was performed by the method provided by the manufacturer.
Structure (SMILES),HA production (%) (hyaluronic acid; 25 μM),HA production (%) (hyaluronic acid; 50 μM),HA production (%) (hyaluronic acid; 100 μM),TARC production (%) ([1]; 12.5 μM),TARC production (%) ([1]; 25 μM),TARC production (%) ([1]; 50 μM),HaCaT cell growth rate (%) (HaCaT cells; 12.5 μM),HaCaT cell growth rate (%) (HaCaT cells; 25 μM),HaCaT cell growth rate (%) (HaCaT cells; 50 μM),HaCaT cell growth rate (%) (HaCaT cells; 100 μM),HA production (%) (hyaluronic acid; 10 μM),HaCaT cell growth rate (%) (HaCaT cells; 10 μM),FLG production (%) (Filaggrin)
CCCCC/C=C\C/C=C\CCCCCCCC(=O)OC[C@@H](O)CO (racemic) [Monolinolein],102.7 ± 0.14,113.7 ± 0.14,114.4 ± 0.05,75.2 ± 0.07,37.7 ± 1.59,30.9 ± 1.97,106.0 ± 2.6,102.2 ± 1.0,101.5 ± 1.7,122.6 ± 2.1,,,
"CCCCC/C=C\C/C=C\CCCCCCCC(=O)OCC [Ethyl linoleate, ethyl linoleate]",92.7 ± 0.27,85.5 ± 0.27,89.5 ± 0.07,78.3 ± 0.10,53.8 ± 0.16,42 ± 0.81,92.5 ± 3.0,92.3 ± 2.0,88.9 ± 2.3,94.1 ± 3.0,,,
"CC1=C(/C=C/C(C)=C/C=C/C(C)=C/C(=O)O)C(C)(C)CCC1 [Retinoic acid, retinoic acid, reference compound]",,,,,,,,,,,153.1 ± 0.14% and 100.0 ± 0.36%,103.8 ± 2.1,157.5 ± 0.13
"CC/C=C\C/C=C\C/C=C\CCCCCCCC(=O)O [α-Linolenic acid, α-linolenic acid]",105.0 ± 0.06,110.5 ± 0.02,116.3 ± 0.26,72.6 ± 0.03,45.6 ± 0.51,35.7 ± 1.44,97.8 ± 3.6,96.1 ± 4.4,92.1 ± 3.9,106.9 ± 1.0,,,
